Active and inactive are the calls of the source. The rule behind the calls is not given here.
Legend:
Cathepsin K = target: T1, Cathepsin K (Homo sapiens, UniProt P43235); assay: Inhibition of human cathepsin K by fluorescence assay
T1 sequence (P43235 whole entry): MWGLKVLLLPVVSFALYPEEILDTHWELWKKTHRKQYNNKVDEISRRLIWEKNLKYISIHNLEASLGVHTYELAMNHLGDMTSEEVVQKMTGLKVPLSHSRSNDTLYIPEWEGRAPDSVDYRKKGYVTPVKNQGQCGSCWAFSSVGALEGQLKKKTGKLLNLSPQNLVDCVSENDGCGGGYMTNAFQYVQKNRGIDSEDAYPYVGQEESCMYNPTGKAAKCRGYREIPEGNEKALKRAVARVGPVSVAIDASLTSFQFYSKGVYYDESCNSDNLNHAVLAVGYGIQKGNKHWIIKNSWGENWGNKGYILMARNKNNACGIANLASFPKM

[1] = target: Cathepsin B (Homo sapiens) (UniProt P07858); assay: Inhibition of human cathepsin B by fluorescence assay
Cathepsin S [2] = target: T2, Cathepsin S (Homo sapiens, UniProt P25774); assay: Inhibition of human cathepsin S by fluorescence assay
[3] = target: Procathepsin L (Homo sapiens) (UniProt P07711); assay: Inhibition of human cathepsin L by fluorescence assay
Cathepsin S [4] = target: T2, Cathepsin S; assay: Inhibition of cathepsin S-mediated proteolytic cleavage of MHC2 associated invariant chain in human JY cells assessed as accumulation of lip10 by Western blot analysis; assay type: cell-based
[5] = Volume of distribution at steady state in Wistar rat at 2 mg/kg, iv and 10 mg/kg, po; assay type: ADME, organism-based; conditions: in vivo, read-out: Vdss
[6] = Oral bioavailability in Wistar rat at 10 mg/kg; assay type: ADME, organism-based; conditions: in vivo
Cathepsin S [7] = target: T3, Cathepsin S (Mus musculus, UniProt O70370); assay: Inhibition of cathepsin S-mediated proteolytic cleavage of MHC2 associated invariant chain in mouse splenocytes assessed as accumulation of lip10 by Western blot analysis; assay type: cell-based
[8] = Chemical stability of the compound assessed as half life at 1.25 mM at pH 7.5 by nitrile war-head stability assay in presence of GSH; assay type: physicochemical
[9] = Plasma clearance in Wistar rat at 2 mg/kg, iv and 10 mg/kg, po; assay type: ADME, organism-based
[10] = Ratio of drug level in spleen to plasma in C57/BL6 mouse at 0.3 mg/kg, po; assay type: ADME, organism-based, C57Bl/6; design: dose 0.3 mg/kg, route oral
Cathepsin S [11] = target: T3, Cathepsin S; assay: Inhibition of mouse cathepsin S by fluorescence assay
Mus musculus = assay: Induction of Lip10 accumulation in C57/BL6 mouse spleen at 0.3 mg/kg, po after 4 hrs by Western blot analysis; assay type: functional, organism-based; design: dose 0.3 mg/kg; conditions: C57Bl/6
[12] = Chemical stability of the compound assessed as half life at 1.24 mM at pH 7.5 by nitrile war-head stability assay in presence of GSH; assay type: physicochemical
[13] = Chemical stability of the compound assessed as half life at 1.15 mM at pH 7.5 by nitrile war-head stability assay in presence of GSH; assay type: physicochemical

T3 sequence (O70370 whole entry): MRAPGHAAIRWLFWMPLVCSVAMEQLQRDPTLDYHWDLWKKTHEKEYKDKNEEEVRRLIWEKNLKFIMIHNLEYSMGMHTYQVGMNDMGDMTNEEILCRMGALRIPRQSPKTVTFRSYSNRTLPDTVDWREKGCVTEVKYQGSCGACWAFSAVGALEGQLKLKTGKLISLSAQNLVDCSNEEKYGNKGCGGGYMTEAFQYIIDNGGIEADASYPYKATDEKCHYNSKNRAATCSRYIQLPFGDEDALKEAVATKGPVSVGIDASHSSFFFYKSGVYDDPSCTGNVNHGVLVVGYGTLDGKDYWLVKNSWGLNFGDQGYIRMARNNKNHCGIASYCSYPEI
T2 sequence (P25774 whole entry): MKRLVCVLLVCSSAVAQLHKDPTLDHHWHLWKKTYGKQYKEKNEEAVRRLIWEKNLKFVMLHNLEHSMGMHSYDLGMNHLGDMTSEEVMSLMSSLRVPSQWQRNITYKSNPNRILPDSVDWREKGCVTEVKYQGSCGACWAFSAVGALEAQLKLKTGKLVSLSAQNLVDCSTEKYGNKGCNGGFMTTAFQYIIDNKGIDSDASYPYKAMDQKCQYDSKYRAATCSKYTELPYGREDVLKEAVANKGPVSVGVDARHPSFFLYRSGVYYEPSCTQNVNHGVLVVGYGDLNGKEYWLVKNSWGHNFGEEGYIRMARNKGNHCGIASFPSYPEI
Sequence of Procathepsin L (Homo sapiens) (P07711 114-333 limits assumed): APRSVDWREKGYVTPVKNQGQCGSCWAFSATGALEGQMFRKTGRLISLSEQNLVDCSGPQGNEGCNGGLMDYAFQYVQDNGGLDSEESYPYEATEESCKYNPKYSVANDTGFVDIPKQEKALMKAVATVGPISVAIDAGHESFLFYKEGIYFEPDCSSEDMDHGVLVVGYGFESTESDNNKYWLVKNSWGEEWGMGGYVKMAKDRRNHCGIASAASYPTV

Row | IC50 (Cathepsin K) [µM] | inhibition [1] | IC50 (Cathepsin S [2]) [µM] | inhibition [3] | Structure (SMILES) | other results
1 | 8.51 | inactive | 0.339 | inactive | COc1ccc(-c2cc3[nH]cnc3c(C#N)n2)cc1C(F)(F)F | –
2 | > 10 | inactive | 0.105 | inactive | CCNc1ccc(-c2cc3[nH]cnc3c(C#N)n2)cc1C(F)(F)F | –
3 | 1.07 | inactive | 0.024 | inactive | Cn1cnc2c(C#N)nc(-c3ccc(CCCO)c(C(F)(F)F)c3)cc21 | –
4 | 0.468 | inactive | – | inactive | CN1CCN(CCCOc2ccc(-c3cc4c(ncn4C)c(C#N)n3)cc2C(F)(F)F)CC1 | IC50 (Cathepsin S [4]): 0.106 µM
5 | 1.17 | inactive | 0.0078 | inactive | Cn1cnc2c(C#N)nc(-c3ccc(OCCN4CCNC(=O)C4)c(C(F)(F)F)c3)cc21 | –
6 | 0.331 | inactive | 0.0072 | inactive | CCN1CCN(CCCOc2ccc(-c3cc4c(ncn4C)c(C#N)n3)cc2C(F)(F)F)CC1 | Vd [5]: 2 L/kg; bioavailability [6]: 9%; IC50 (Cathepsin S [4]): 0.063 µM; IC50 (Cathepsin S [7]): 0.0065 µM; half-life at 1250 µM [8]: > 100 h; clearance [9]: 1.68 L/h/kg; Kp [10]: 50; IC50 (Cathepsin S [11]): 0.0026 µM; Activity (Mus musculus): Active
7 | 2.29 | inactive | 0.02 | inactive | Cn1cnc2c(C#N)nc(-c3ccc(OCc4ccccn4)c(C(F)(F)F)c3)cc21 | Vd [5]: 0.7 L/kg; bioavailability [6]: 54%; IC50 (Cathepsin S [4]): 0.853 µM; clearance [9]: 19.6 L/h/kg; IC50 (Cathepsin S [11]): 0.0025 µM
8 | 2 | – | 1.05 | – | N#Cc1nc(-c2cccc(C(F)(F)F)c2)cc2nc[nH]c12 | –
9 | 0.513 | – | 0.035 | – | CCOc1ccc(-c2cc3c(ncn3CCCN3CCOCC3)c(C#N)n2)cc1C(F)(F)F | –
10 | > 10 | inactive | 0.0126 | inactive | Cn1cnc2c(C#N)nc(-c3ccc(OCc4cccnc4)c(C(F)(F)F)c3)cc21 | –
11 | 3.16 | inactive | 0.071 | inactive | Cn1cnc2c(C#N)nc(-c3ccc(CCO)c(C(F)(F)F)c3)cc21 | –
12 | – | inactive | – | inactive | CCOc1ccc(-c2cccc(C#N)n2)cc1C(F)(F)F | –
13 | – | – | – | – | CN1CCN(CCCOc2ccc(-c3cccc(C#N)n3)cc2C(F)(F)F)CC1 | half-life at 1240 µM [12]: > 100 h
14 | 2.69 | inactive | 0.063 | inactive | N#Cc1nc(-c2ccc(OCCCO)c(C(F)(F)F)c2)cc2[nH]cnc12 | –
15 | > 10 | – | 0.661 | – | Cn1ccc2c(C#N)nc(-c3ccc(OCCN4CCCC4=O)c(C(F)(F)F)c3)cc21 | –
16 | 0.178 | inactive | 0.0083 | inactive | Cn1cnc2c(C#N)nc(-c3ccc(OCCC4CCNCC4)c(C(F)(F)F)c3)cc21 | IC50 (Cathepsin S [4]): 0.009 µM
17 | – | inactive | – | inactive | CCCOc1ccc(-c2cc3[nH]cnc3c(C#N)n2)cc1C(F)(F)F | –
18 | > 10 | inactive | 3.24 | inactive | CC(=O)Nc1ccc(-c2cc3[nH]cnc3c(C#N)n2)cc1C(F)(F)F | –
19 | 2.51 | inactive | 0.0078 | inactive | Cn1cnc2c(C#N)nc(-c3ccc(OCCN4CCCC4=O)c(C(F)(F)F)c3)cc21 | IC50 (Cathepsin S [4]): 1.42 µM

Row | IC50 (Cathepsin K) [µM] | inhibition [1] | IC50 (Cathepsin S [2]) [µM] | inhibition [3] | Structure (SMILES) | other results
20 | 0.27 | – | 0.027 | – | CCOc1ccc(-c2cc3c(ncn3CCCN(C)C)c(C#N)n2)cc1C(F)(F)F | IC50 (Cathepsin S [4]): 0.26 µM
21 | 8.31 | inactive | 0.025 | inactive | CCOc1ccc(-c2cc3[nH]cnc3c(C#N)n2)cc1C(F)(F)F | –
22 | 0.24 | inactive | 0.0141 | inactive | Cn1cnc2c(C#N)nc(-c3ccc(OCC4CCNCC4)c(C(F)(F)F)c3)cc21 | –
23 | 0.871 | inactive | 0.028 | inactive | Cn1cnc2c(C#N)nc(-c3ccc(OCCCN4CCCC4)c(C(F)(F)F)c3)cc21 | IC50 (Cathepsin S [4]): 0.089 µM
24 | 2.04 | inactive | 0.011 | inactive | Cc1cccc(CCOc2ccc(-c3cc4c(ncn4C)c(C#N)n3)cc2C(F)(F)F)n1 | IC50 (Cathepsin S [4]): 0.267 µM
25 | 1.26 | inactive | 0.04 | inactive | CCOc1ccc(-c2cc3c(ncn3C)c(C#N)n2)cc1C(F)(F)F | –
26 | > 10 | inactive | 0.01 | inactive | Cn1cnc2c(C#N)nc(-c3ccc(OCc4ccncc4)c(C(F)(F)F)c3)cc21 | –
27 | – | – | – | – | CN1CCN(CCCOc2ccc(-c3ccnc(C#N)n3)cc2C(F)(F)F)CC1 | half-life at 1150 µM [13]: < 0.25 h
28 | 0.891 | inactive | 0.316 | inactive | Cn1cnc2c(C#N)nc(-c3ccc(OC4CCNCC4)c(C(F)(F)F)c3)cc21 | –
29 | – | inactive | – | inactive | CCOc1ccc(-c2nc(C#N)c3nc[nH]c3n2)cc1C(F)(F)F | –
30 | 1.66 | – | 0.037 | – | CCOc1ccc(-c2cc3c(ncn3CCN3CCOCC3)c(C#N)n2)cc1C(F)(F)F | IC50 (Cathepsin S [4]): 10 µM
31 | 0.776 | inactive | 0.041 | inactive | CN(C)CCCOc1ccc(-c2cc3c(ncn3C)c(C#N)n2)cc1C(F)(F)F | Vd [5]: 58 L/kg; bioavailability [6]: 58%; IC50 (Cathepsin S [4]): 0.084 µM; clearance [9]: 0.6 L/h/kg; IC50 (Cathepsin S [11]): 0.0026 µM
32 | > 10 | inactive | 0.676 | inactive | N#Cc1nc(-c2ccc(OCc3ccccc3)c(C(F)(F)F)c2)cc2[nH]cnc12 | –
33 | – | inactive | – | inactive | N#Cc1nc(-c2cccc(C(F)(F)F)c2)cc2[nH]cnc12 | –
34 | 7.76 | – | 0.2 | – | CCCOc1ccc(-c2cc3nc[nH]c3c(C#N)n2)cc1C(F)(F)F | –
35 | 2.82 | inactive | 0.145 | inactive | N#Cc1nc(-c2ccc(OCCO)c(C(F)(F)F)c2)cc2[nH]cnc12 | –
36 | 5.89 | inactive | 0.209 | inactive | CN(C)CCOc1ccc(-c2cc3c(ncn3C)c(C#N)n2)cc1C(F)(F)F | –
37 | 0.447 | – | 0.032 | – | CCOc1ccc(-c2cc3c(ncn3CCN(C)C)c(C#N)n2)cc1C(F)(F)F | IC50 (Cathepsin S [4]): 0.854 µM

Reference: ChEMBL document CHEMBL1208745, “6-Phenyl-1H-imidazo[4,5-c]pyridine-4-carbonitrile as cathepsin S inhibitors” (Bioorg Med Chem Lett, 2010)
